Results taken from patent US9822164B2, “Labelling agent, and composition for labelling a protein, method for labelling a protein, and method for detecting a protein” (KOREA INSTITUTE OF SCIENCE AND TECHNOLOGY, priority 2014, dated 2017).

Test system: not listed separately
Assay: Maximum values of absorbance and fluorescence of the compounds in DMSO
Assay type: physicochemical
Conditions: not given
Method: Experimental device, analyzer and reagents used in Examples and comparative experiments are the same as follows. FT-NMR spectroscopy is performed using Bruker Avance 400, and LC/MS analysis is performed using Thermo Dionex ultimate 3000/Velos pro on ion-trap mass spectrometer (ITMS). All reagents purchased from Aldrich are used without additional purification. Whatman filter papers having a diameter of 125 mm are used. Of derivatives used in experiments, 2-(2-Aminophenyl)-1H-benzimidazole) (ABI) is purchased from Aldrich, and NMR analysis and fluorescence/absorbance values are recorded by the method known in the art. […]

Absorbance (maximum value)	Fluorescence (maximum value)	Compound
320 nm	463 nm	Oc1ccccc1-c1nc2ccccc2[nH]1 [HBI, 2-(2-hydroxyphenyl)benzimidazole]
360 nm	415 nm	Nc1ccccc1-c1nc2ccccc2[nH]1 [ABI, 2-(2-Aminophenyl)-1H-benzimidazole]
350 nm	515 nm	Oc1ccccc1-c1nc2ccccc2s1 [HBT, 2-(2-hydroxyphenyl)benzothiazole]
380 nm	480 nm	Oc1ccccc1-c1nc2ccccc2o1 [HBO, 2-(2-hydroxyphenyl)benzoxazole]
360 nm	448 nm	CCN(CC)c1ccc2nc(-c3ccccc3O)[nH]c2c1 [HDBI, 2-(2-hydroxyphenyl)-5-(diethylamino)benzimidazole]

Molecular target: T1, BSA (Bos taurus, UniProt P02769)
T1 construct: purchased Sigma Aldrich
Assay: Labelling (photocrosslinking) of protein by UV irradiation, gel electrophoresis, fluorescence intensity
Assay type: binding
Conditions: 5 minutes after UV irradiation, about 254 nm; FIG. 1a
Method: (§1) Proteins of BSA, HSA, peroxidase, and lysozyme are treated with the compounds synthesized or purchased in Example 1, and irradiated with UV at about 254 nm. Then, binding of the compound and the protein over UV irradiation time is examined by gel electrophoresis. A gel electrophoresis apparatus (Bio-Rad) and a small vertical gel electrophoresis apparatus are connected and used for gel electrophoresis. For experiment, a 12% SDS gel and a running buffer are directly prepared as follows and used. 12% SDS gel is prepared by mixing 7.9 ml of H2O, 6.5 ml of pH […] Tris-HCl buffer, 10 ml of 30% Acryl amide, 250 μl of 10% SDS gel, 250 μl of APS, and 10 μl of TMEDE. 1× running buffer is prepared by mixing 200 ml of 10×TGS buffer and 1800 ml of H2O.
(§2) Proteins of BSA, HAS, peroxidase, and lysozyme are purchased from Sigma Aldrich. Fluorescence intensity of the labeled protein is measured using BIO-RAD ChemiDoc, and Blue Epi and Green Epi are used as a light source, and 530 nm emission (28 nm bandwidth) and 650 nm emission (50 nm bandwidth) filters are used according to fluorescence wavelength.
(§3) Y axis of FIGS. 1a through 1d represents fluorescence intensity, indicating photocrosslinking degree of the compound and protein.

T1 sequence (P02769 25-607): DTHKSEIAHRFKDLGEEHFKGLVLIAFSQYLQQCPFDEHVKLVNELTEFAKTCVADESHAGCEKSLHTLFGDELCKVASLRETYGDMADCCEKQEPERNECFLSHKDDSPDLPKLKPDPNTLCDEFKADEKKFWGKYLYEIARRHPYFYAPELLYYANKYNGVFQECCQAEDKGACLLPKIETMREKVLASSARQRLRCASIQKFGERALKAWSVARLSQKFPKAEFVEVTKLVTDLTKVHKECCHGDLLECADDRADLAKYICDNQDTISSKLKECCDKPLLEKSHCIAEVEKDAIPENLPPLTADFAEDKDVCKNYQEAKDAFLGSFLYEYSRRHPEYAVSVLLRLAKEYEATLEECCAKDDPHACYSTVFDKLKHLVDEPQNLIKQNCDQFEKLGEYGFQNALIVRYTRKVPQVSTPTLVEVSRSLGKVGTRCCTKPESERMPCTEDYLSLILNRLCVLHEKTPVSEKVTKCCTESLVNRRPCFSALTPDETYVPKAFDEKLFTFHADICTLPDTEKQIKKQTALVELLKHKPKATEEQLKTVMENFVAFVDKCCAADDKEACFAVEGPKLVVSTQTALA

Labeling of BSA (fluorescence intensity, photocrosslinking degree)	Compound
significant labeling	Oc1ccccc1-c1nc2ccccc2[nH]1 [HBI, 2-(2-hydroxyphenyl)benzimidazole]
significant labeling	Oc1ccccc1-c1nc2ccccc2o1 [HBO, 2-(2-hydroxyphenyl)benzoxazole]
significant labeling	CCN(CC)c1ccc2nc(-c3ccccc3O)[nH]c2c1 [HDBI, 2-(2-hydroxyphenyl)-5-(diethylamino)benzimidazole]

Molecular target: T2, HSA (Homo sapiens, UniProt P02768)
T2 construct: purchased Sigma Aldrich
Assay: as above
Assay type: binding
Conditions: 5 minutes after UV irradiation, about 254 nm; FIG. 1b
Method: as §1, §2, §3

T2 sequence (P02768 25-609): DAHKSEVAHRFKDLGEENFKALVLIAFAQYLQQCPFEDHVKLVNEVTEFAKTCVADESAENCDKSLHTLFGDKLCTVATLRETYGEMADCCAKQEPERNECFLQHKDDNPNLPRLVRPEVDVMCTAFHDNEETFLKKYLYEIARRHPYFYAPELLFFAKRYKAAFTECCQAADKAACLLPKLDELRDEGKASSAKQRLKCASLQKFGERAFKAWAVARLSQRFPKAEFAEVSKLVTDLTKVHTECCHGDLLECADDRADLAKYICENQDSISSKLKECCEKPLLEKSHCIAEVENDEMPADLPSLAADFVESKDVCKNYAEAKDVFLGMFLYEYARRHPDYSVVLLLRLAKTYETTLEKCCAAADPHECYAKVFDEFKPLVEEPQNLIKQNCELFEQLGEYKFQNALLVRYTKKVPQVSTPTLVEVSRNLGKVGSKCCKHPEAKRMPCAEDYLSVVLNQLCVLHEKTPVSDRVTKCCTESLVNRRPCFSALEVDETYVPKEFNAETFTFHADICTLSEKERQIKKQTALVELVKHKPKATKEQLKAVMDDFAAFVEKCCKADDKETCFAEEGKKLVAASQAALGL

Labeling of HSA (fluorescence intensity, photocrosslinking degree)	Compound
significant labeling	Oc1ccccc1-c1nc2ccccc2[nH]1 [HBI, 2-(2-hydroxyphenyl)benzimidazole]
significant labeling	Nc1ccccc1-c1nc2ccccc2[nH]1 [ABI, 2-(2-Aminophenyl)-1H-benzimidazole]
significant labeling	CCN(CC)c1ccc2nc(-c3ccccc3O)[nH]c2c1 [HDBI, 2-(2-hydroxyphenyl)-5-(diethylamino)benzimidazole]

Molecular target: T3, lysozyme (Gallus gallus, UniProt P00698)
T3 construct: purchased Sigma Aldrich
Assay: as above
Assay type: binding
Conditions: 5 minutes after UV irradiation, about 254 nm; FIG. 1d
Method: as §1, §2, §3

T3 sequence (P00698 19-147): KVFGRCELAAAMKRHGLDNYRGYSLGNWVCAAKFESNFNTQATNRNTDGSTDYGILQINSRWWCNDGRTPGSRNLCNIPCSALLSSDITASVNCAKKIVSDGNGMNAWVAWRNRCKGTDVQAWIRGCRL

Labeling of lysozyme (fluorescence intensity, photocrosslinking degree)	Compound
significant labeling	Oc1ccccc1-c1nc2ccccc2[nH]1 [HBI, 2-(2-hydroxyphenyl)benzimidazole]
significant labeling	CCN(CC)c1ccc2nc(-c3ccccc3O)[nH]c2c1 [HDBI, 2-(2-hydroxyphenyl)-5-(diethylamino)benzimidazole]

Test system: peroxidase
Assay: as above
Assay type: binding
Conditions: 5 minutes after UV irradiation, about 254 nm; FIG. 1c
Method: as §1, §2, §3

Labeling of peroxidase (fluorescence intensity, photocrosslinking degree)	Compound
significant labeling	Oc1ccccc1-c1nc2ccccc2[nH]1 [HBI, 2-(2-hydroxyphenyl)benzimidazole]
significant labeling	Nc1ccccc1-c1nc2ccccc2[nH]1 [ABI, 2-(2-Aminophenyl)-1H-benzimidazole]
significant labeling	CCN(CC)c1ccc2nc(-c3ccccc3O)[nH]c2c1 [HDBI, 2-(2-hydroxyphenyl)-5-(diethylamino)benzimidazole]

Test system: BSA, HSA, peroxidase, and lysozyme
Assay: Protein labelling, results of FIGS. 1a to 1d taken together
Assay type: binding
Conditions: not given
Method: as §1, §2
Y axis of FIGS. 1a through 1d represents fluorescence intensity, indicating photocrosslinking degree of the compound and protein. […]

Photocrosslinking property, comparison among the compounds	Compound
highest photocrosslinking property	Oc1ccccc1-c1nc2ccccc2[nH]1 [HBI, 2-(2-hydroxyphenyl)benzimidazole]
